# Experimental data reported in ChEMBL document CHEMBL4251578, “Design, synthesis and biological evaluation of novel 2-aminobenzamides containing dithiocarbamate moiety as histone deacetylase inhibitors and potent antitumor agents” (Eur J Med Chem, 2018).
# Experiments:
# A-375 [1] = experiment: Antiproliferative activity against human A375 cells after 72 hrs by CCK-8 assay; type: functional, cell-based; settings: for IC50: A-375, 72 h
# HeLa = experiment: Antiproliferative activity against human HeLa cells at 8 uM after 72 hrs by CCK-8 assay relative to control; type: functional
# SMMC-7721 [2] = experiment: Induction of apoptosis in human SMMC7721 cells assessed as necrotic cells at 0.125 umol/L after 72 hrs by Alexa Fluor 488 Annexin/propidium iodide staining-based flow cytometric analysis (reference value: 2.48%); type: functional
# SMMC-7721 [3] = experiment: Induction of apoptosis in human SMMC7721 cells assessed as early apoptotic cells at 1 umol/L after 72 hrs by Alexa Fluor 488 Annexin/propidium iodide staining-based flow cytometric analysis (reference value: 0.09%); type: functional
# SMMC-7721 [4] = experiment: Cell cycle arrest in human SMMC7721 cells assessed as accumulation of cells at G0/G1 phase at 1 umol/L after 72 hrs by propidium iodide staining-based flow cytometric analysis (reference value: 80.65%); type: functional
# SMMC-7721 [5] = experiment: Induction of apoptosis in human SMMC7721 cells assessed as late apoptotic cells at 0.125 umol/L after 72 hrs by Alexa Fluor 488 Annexin/propidium iodide staining-based flow cytometric analysis (reference value: 0.29%); type: functional
# SMMC-7721 [6] = experiment: Induction of apoptosis in human SMMC7721 cells assessed as viable cells at 0.125 umol/L after 72 hrs by Alexa Fluor 488 Annexin/propidium iodide staining-based flow cytometric analysis (reference value: 97.14%); type: functional; settings: SMMC-7721, 72 h, read-out: Activity
# A-375 [7] = experiment: Antiproliferative activity against human A375 cells at 8 uM after 72 hrs by CCK-8 assay relative to control; type: functional; settings: A-375, 72 h
# SMMC-7721 [8] = experiment: Cell cycle arrest in human SMMC7721 cells assessed as accumulation of cells at G2/M phase at 1 umol/L after 72 hrs by propidium iodide staining-based flow cytometric analysis (reference value: 14.14%); type: functional
# SMMC-7721 [9] = experiment: Cell cycle arrest in human SMMC7721 cells assessed as accumulation of cells at G2/M phase at 0.125 umol/L after 72 hrs by propidium iodide staining-based flow cytometric analysis (reference value: 14.14%); type: functional
# SMMC-7721 [10] = experiment: Cell cycle arrest in human SMMC7721 cells assessed as accumulation of cells at S phase at 4 umol/L after 72 hrs by propidium iodide staining-based flow cytometric analysis (reference value: 5.21%); type: functional
# SMMC-7721 [11] = experiment: Induction of apoptosis in human SMMC7721 cells assessed as necrotic cells at 1 umol/L after 72 hrs by Alexa Fluor 488 Annexin/propidium iodide staining-based flow cytometric analysis (reference value: 2.48%); type: functional
# SMMC-7721 [12] = experiment: Cell cycle arrest in human SMMC7721 cells assessed as accumulation of cells at S phase at 0.125 umol/L after 72 hrs by propidium iodide staining-based flow cytometric analysis (reference value: 5.21%); type: functional
# SMMC-7721 [13] = experiment: Induction of apoptosis in human SMMC7721 cells assessed as viable cells at 1 umol/L after 72 hrs by Alexa Fluor 488 Annexin/propidium iodide staining-based flow cytometric analysis (reference value: 97.14%); type: functional; settings: SMMC-7721, 72 h, read-out: Activity
# MGC-803 [14] = experiment: Antiproliferative activity against human MGC803 cells after 72 hrs by CCK-8 assay; type: functional, cell-based; settings: for IC50: MGC-803, 72 h
# SMMC-7721 [15] = experiment: Induction of apoptosis in human SMMC7721 cells after 72 hrs by Alexa Fluor 488 Annexin/propidium iodide staining-based flow cytometric analysis; type: functional, cell-based
# Histone deacetylase 2 = Histone deacetylase 2 (Homo sapiens, UniProt Q92769); experiment: Inhibition of human recombinant HDAC2 using Fluor de Lys-Green as substrate preincubated for 5 mins followed by substrate addition and measured after 1 hr by fluorescence assay
# Histone deacetylase 2, sequence (Q92769 whole entry): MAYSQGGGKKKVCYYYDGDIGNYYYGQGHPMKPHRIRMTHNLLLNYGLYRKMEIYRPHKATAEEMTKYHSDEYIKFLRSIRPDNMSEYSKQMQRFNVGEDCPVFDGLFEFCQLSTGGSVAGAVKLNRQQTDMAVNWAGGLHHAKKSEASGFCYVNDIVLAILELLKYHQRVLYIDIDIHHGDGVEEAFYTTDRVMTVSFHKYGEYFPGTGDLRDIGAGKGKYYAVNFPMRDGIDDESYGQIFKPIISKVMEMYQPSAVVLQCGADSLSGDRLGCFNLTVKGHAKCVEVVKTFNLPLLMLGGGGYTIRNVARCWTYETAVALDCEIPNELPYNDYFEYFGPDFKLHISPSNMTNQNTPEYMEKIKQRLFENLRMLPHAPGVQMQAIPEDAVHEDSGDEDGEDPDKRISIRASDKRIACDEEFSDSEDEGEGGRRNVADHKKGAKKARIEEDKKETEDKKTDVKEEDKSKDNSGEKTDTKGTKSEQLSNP
# MGC-803 [16] = experiment: Antiproliferative activity against human MGC803 cells at 8 uM after 72 hrs by CCK-8 assay relative to control; type: functional; settings: MGC-803, 72 h
# SMMC-7721 [17] = experiment: Induction of apoptosis in human SMMC7721 cells assessed as early apoptotic cells at 4 umol/L after 72 hrs by Alexa Fluor 488 Annexin/propidium iodide staining-based flow cytometric analysis (reference value: 0.09%); type: functional
# SMMC-7721 [18] = experiment: Induction of apoptosis in human SMMC7721 cells assessed as necrotic cells at 4 umol/L after 72 hrs by Alexa Fluor 488 Annexin/propidium iodide staining-based flow cytometric analysis (reference value: 2.48%); type: functional
# MGC-803 [19] = experiment: Antiproliferative activity against human MGC803 cells at 2 uM after 72 hrs by CCK-8 assay relative to control; type: functional; settings: MGC-803, 72 h
# SMMC-7721 [20] = experiment: Cell cycle arrest in human SMMC7721 cells assessed as accumulation of cells at G0/G1 phase at 0.125 umol/L after 72 hrs by propidium iodide staining-based flow cytometric analysis (reference value: 80.65%); type: functional
# SMMC-7721 [21] = experiment: Cell cycle arrest in human SMMC7721 cells assessed as accumulation of cells at G2/M phase at 4 umol/L after 72 hrs by propidium iodide staining-based flow cytometric analysis (reference value: 14.14%); type: functional
# SMMC-7721 [22] = experiment: Cell cycle arrest in human SMMC7721 cells assessed as accumulation of cells at G0/G1 phase at 4 umol/L after 72 hrs by propidium iodide staining-based flow cytometric analysis (reference value: 80.65%); type: functional
# HCT-116 = experiment: Antiproliferative activity against human HCT116 cells after 72 hrs by CCK-8 assay; type: functional, cell-based; settings: for IC50: HCT-116, 72 h
# A-375 [23] = experiment: Antiproliferative activity against human A375 cells at 2 uM after 72 hrs by CCK-8 assay relative to control; type: functional; settings: A-375, 72 h
# SMMC-7721 [24] = experiment: Induction of apoptosis in human SMMC7721 cells assessed as viable cells at 4 umol/L after 72 hrs by Alexa Fluor 488 Annexin/propidium iodide staining-based flow cytometric analysis (reference value: 97.14%); type: functional; settings: SMMC-7721, 72 h, read-out: Activity
# SMMC-7721 [25] = experiment: Induction of apoptosis in human SMMC7721 cells assessed as late apoptotic cells at 4 umol/L after 72 hrs by Alexa Fluor 488 Annexin/propidium iodide staining-based flow cytometric analysis (reference value: 0.29%); type: functional
IC50 (A-375 [1]),IC50 (MGC-803 [14]),IC50 (Histone deacetylase 2),Structure (SMILES),inhibition at 8 µM (HeLa),Activity (SMMC-7721 [2]),Activity (SMMC-7721 [3]),Activity (SMMC-7721 [4]),Activity (SMMC-7721 [5]),viability at 0.125 µM (SMMC-7721 [6]),inhibition at 8 µM (A-375 [7]),Activity (SMMC-7721 [8]),Activity (SMMC-7721 [9]),Activity (SMMC-7721 [10]),Activity (SMMC-7721 [11]),Activity (SMMC-7721 [12]),viability at 1 µM (SMMC-7721 [13]),Activity (SMMC-7721 [15]),inhibition at 8 µM (MGC-803 [16]),Activity (SMMC-7721 [17]),Activity (SMMC-7721 [18]),other results
1270 nM,1580 nM,470 nM,Nc1ccccc1NC(=O)c1ccc(CSC(=S)N2CCN(c3ccncc3)CC2)cc1,77.4%,11.27%,17.23%,79.27%,12.55%,72.5%,90.7%,13.68%,12.01%,2.76%,5.01%,7.28%,66.7%,Dose-dependent effect,87.1%,19.79%,3.17%,Activity (A-375 [1]): Dose-dependent effect; Activity (MGC-803 [14]): Dose-dependent effect; inhibition at 2 µM (MGC-803 [19]): 64.8%; Activity (SMMC-7721 [20]): Dose-dependent effect; Activity (SMMC-7721 [20]; record 2): 80.71%; Activity (SMMC-7721 [21]): 12.05%; Activity (SMMC-7721 [22]): 85.19%; Activity (HCT-116): Dose-dependent effect; IC50 (HCT-116): 540 nM; inhibition at 2 µM (A-375 [23]): 85.7%; viability at 4 µM (SMMC-7721 [24]): 24.3%; Activity (SMMC-7721 [25]): 52.78%
1940 nM,1370 nM,900 nM,CCN(Cc1ccncc1)C(=S)SCc1ccc(C(=O)Nc2ccccc2N)cc1,77.7%,12.93%,18.06%,71.44%,11.22%,73.1%,86.2%,21.11%,11.92%,9.19%,13.18%,6.81%,54.7%,Dose-dependent effect,85.2%,23.81%,1.27%,inhibition at 2 µM (MGC-803 [19]): 71.6%; Activity (SMMC-7721 [20]): Dose-dependent effect; Activity (SMMC-7721 [20]; record 2): 81.27%; Activity (SMMC-7721 [21]): 48.94%; Activity (SMMC-7721 [22]): 41.87%; IC50 (HCT-116): 750 nM; inhibition at 2 µM (A-375 [23]): 67.2%; viability at 4 µM (SMMC-7721 [24]): 43%; Activity (SMMC-7721 [25]): 31.88%
1970 nM,940 nM,3230 nM,Nc1ccccc1NC(=O)c1ccc(CSC(=S)N2CCc3ccccc3C2)cc1,76.3%,3.49%,27.39%,67.59%,10.62%,71.2%,86.7%,23.16%,15.89%,7.63%,2.9%,5.7%,57.3%,Dose-dependent effect,87.5%,25.36%,1.94%,inhibition at 2 µM (MGC-803 [19]): 80.9%; Activity (SMMC-7721 [20]): Dose-dependent effect; Activity (SMMC-7721 [20]; record 2): 78.41%; Activity (SMMC-7721 [21]): 28.31%; Activity (SMMC-7721 [22]): 64.06%; IC50 (HCT-116): 1560 nM; inhibition at 2 µM (A-375 [23]): 55.5%; viability at 4 µM (SMMC-7721 [24]): 46%; Activity (SMMC-7721 [25]): 26.7%
